Measurements published in ChEMBL document CHEMBL1201862, “PubChem BioAssay data set” (2004).
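Briefly, cells in 96-well plates were exposed to five compound concentrations for 48 h, and endpoints were estimated by linear interpolation. GI50: concentration for 50% inhibition of growth.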 Calls of active or inactive are those of the source. Cut-off read from the data, not from the text of the source: active = GI50 up to about 1.1 µM and inactive = higher.

Assays:
Experiment in all cases: NCI-60 cell line screen, 48 h
[1] = tested on: TK-10
[2] = tested on: HCT-15
[3] = tested on: HCC 2998
[4] = tested on: HCT-116
[5] = tested on: K562
[6] = tested on: HOP-62
[7] = tested on: SK-MEL-28
[8] = tested on: Malme-3M
[9] = tested on: NCI-H23
[10] = tested on: IGROV-1
[11] = tested on: ACHN
[12] = tested on: HT-29
[13] = tested on: OVCAR-4
[14] = tested on: EKVX
[15] = tested on: HL-60
[16] = tested on: OVCAR-3
[17] = tested on: A549
[18] = tested on: OVCAR-8
[19] = tested on: CCRF-CEM
[20] = tested on: U-251
[21] = tested on: A498
[22] = tested on: SK-OV-3
[23] = tested on: SNB-75
[24] = tested on: SF-539
[25] = tested on: PC-3
[26] = tested on: SF-268
[27] = tested on: SF-295
[28] = tested on: NCI/ADR-RES
[29] = tested on: KM12
[30] = tested on: COLO 205
[31] = tested on: DU-145
[32] = tested on: M14
[33] = tested on: MDA-MB-435
[34] = tested on: OVCAR-5
[35] = tested on: UO-31
[36] = tested on: BT-549
[37] = tested on: MCF7
[38] = tested on: SW-620
[39] = tested on: RXF 393
[40] = tested on: UACC-257
[41] = tested on: SK-MEL-2
[42] = tested on: HOP-92
[43] = tested on: NCI-H460
[44] = tested on: CAKI-1
[45] = tested on: SNB-19
[46] = tested on: 786-0
[47] = tested on: NCI-H522
[48] = tested on: Hs-578T
[49] = tested on: SK-MEL-5
[50] = tested on: T47D
[51] = tested on: SN12C
[52] = tested on: MOLT-4
[53] = tested on: NCI-H226
[54] = tested on: LOX IMVI
[55] = tested on: MDA-N
[56] = tested on: RPMI-8226
[57] = tested on: UACC-62
[58] = tested on: MDA-MB-231
[59] = tested on: SR

SMILES: COc1ccc(Oc2cccc(/C=C3/C(=O)Nc4ccccc43)c2)cc1
- GI50 [1]: 15.2 µM (inactive)
- GI50 [2]: 10.2 µM
- GI50 [3]: 9.31 µM (inactive)
- GI50 [4]: 3.6 µM (inactive)
- GI50 [5]: 1.57 µM (inactive)
- GI50 [6]: 14.8 µM (inactive)
- GI50 [7]: 7.06 µM (inactive)
- GI50 [8]: 11.2 µM (inactive)
- GI50 [9]: 3.23 µM (inactive)
- GI50 [10]: 7.91 µM (inactive)
- GI50 [11]: 11.6 µM (inactive)
- GI50 [12]: 3.73 µM (inactive)
- GI50 [13]: 14 µM (inactive)
- GI50 [14]: 10.9 µM (inactive)
- GI50 [15]: 3.05 µM (inactive)
- GI50 [16]: 7.89 µM (inactive)
- GI50 [17]: 7.19 µM (inactive)
- GI50 [18]: 16.9 µM (inactive)
- GI50 [19]: 4.21 µM (inactive)
- GI50 [20]: 1.91 µM (inactive)
- GI50 [21]: 12.2 µM (inactive)
- GI50 [22]: 13.8 µM (inactive)
- GI50 [23]: 15 µM (inactive)
- GI50 [24]: 18.9 µM (inactive)
- GI50 [25]: 5.98 µM (inactive)
- GI50 [26]: 11.4 µM (inactive)
- GI50 [27]: 7.01 µM (inactive)
- GI50 [28]: 4.91 µM (inactive)
- GI50 [29]: 5.02 µM (inactive)
- GI50 [30]: 3.73 µM (inactive)
- GI50 [31]: 14.1 µM (inactive)
- GI50 [32]: 11.9 µM (inactive)
- GI50 [33]: 3.58 µM (inactive)
- GI50 [34]: 17.7 µM (inactive)
- GI50 [35]: 6.82 µM (inactive)
- GI50 [36]: 14.8 µM (inactive)
- GI50 [37]: 3.41 µM (inactive)
- GI50 [38]: 11.1 µM (inactive)
- GI50 [39]: 3.94 µM (inactive)
- GI50 [40]: 5.79 µM (inactive)
- GI50 [41]: 11.1 µM (inactive)
- GI50 [42]: 3.53 µM (inactive)
- GI50 [43]: 11.3 µM (inactive)
- GI50 [44]: 6.87 µM (inactive)
- GI50 [45]: 6.1 µM (inactive)
- GI50 [46]: 11.8 µM (inactive)
- GI50 [47]: 6.61 µM (inactive)
- GI50 [48]: 15.4 µM (inactive)
- GI50 [49]: 2.62 µM (inactive)
- GI50 [50]: 1.77 µM (inactive)
- GI50 [51]: 10.9 µM (inactive)
- GI50 [52]: 4 µM (inactive)

SMILES: c1ccc(C[n+]2ccc3c(c2)CCCC3)cc1
- GI50 [1]: > 100 µM (inactive)
- GI50 [2]: > 100 µM
- GI50 [3]: 22.9 µM (inactive)
- GI50 [4]: 93.1 µM (inactive)
- GI50 [5]: 11.7 µM (inactive)
- GI50 [6]: > 100 µM (inactive)
- GI50 [7]: > 100 µM (inactive)
- GI50 [8]: 21.4 µM (inactive)
- GI50 [9]: 39.4 µM (inactive)
- GI50 [10]: > 100 µM (inactive)
- GI50 [11]: 64.6 µM (inactive)
- GI50 [12]: 50.9 µM (inactive)
- GI50 [13]: 56 µM (inactive)
- GI50 [14]: 10.6 µM (inactive)
- GI50 [15]: 29.5 µM (inactive)
- GI50 [16]: 36.8 µM (inactive)
- GI50 [17]: 77.3 µM (inactive)
- GI50 [18]: > 100 µM (inactive)
- GI50 [19]: > 100 µM (inactive)
- GI50 [53]: > 100 µM (inactive)
- GI50 [54]: 92.7 µM (inactive)
- GI50 [20]: 55.1 µM (inactive)
- GI50 [22]: > 100 µM (inactive)
- GI50 [23]: 54.1 µM (inactive)
- GI50 [24]: > 100 µM (inactive)
- GI50 [25]: 78 µM (inactive)
- GI50 [26]: > 100 µM (inactive)
- GI50 [27]: 77.3 µM (inactive)
- GI50 [55]: > 100 µM (inactive)
- GI50 [28]: > 100 µM (inactive)
- GI50 [29]: 62.2 µM (inactive)
- GI50 [30]: 66.5 µM (inactive)
- GI50 [31]: > 100 µM (inactive)
- GI50 [56]: 65.9 µM (inactive)
- GI50 [32]: 95.7 µM (inactive)
- GI50 [33]: > 100 µM (inactive)
- GI50 [34]: > 100 µM (inactive)
- GI50 [35]: > 100 µM (inactive)
- GI50 [37]: 52.1 µM (inactive)
- GI50 [38]: > 100 µM (inactive)
- GI50 [57]: > 100 µM (inactive)
- GI50 [39]: > 100 µM (inactive)
- GI50 [40]: 33.8 µM (inactive)
- GI50 [41]: 84.3 µM (inactive)
- GI50 [42]: > 100 µM (inactive)
- GI50 [43]: 78.7 µM (inactive)
- GI50 [44]: > 100 µM (inactive)
- GI50 [58]: > 100 µM (inactive)
- GI50 [45]: 49.5 µM (inactive)
- GI50 [46]: > 100 µM (inactive)
- GI50 [59]: > 100 µM (inactive)
- GI50 [48]: 49.9 µM (inactive)
- GI50 [49]: 19.6 µM (inactive)
- GI50 [50]: 45.3 µM (inactive)
- GI50 [51]: > 100 µM (inactive)
- GI50 [52]: > 100 µM (inactive)
